Measurements reported in article PMC10447463, “Data-mining unveils structure–property–activity correlation of viral infectivity enhancing self-assembling peptides” (Nature Communications, 2023).
Read-outs that look alike come from different tables or passages of the source.

Columns and labels:
[1] = test system: HIV-1 infection of TZM-bl cells; test: HIV-1 infectivity enhancement assay, β-galactosidase luminescence; format: cell-based; details: for Rel-EFC: infection relative to EF-C (QCKIKQIINMWQ = 1); for Log10 Infection Rel EFC: log10 of infection relative to EF-C; for Log Infectivity: Log10 infection relative to EF-C, TZM-bl cells, asymmetric std dev errors; for Log10 Infection Rel EF-C: HIV-1 infection of TZM-bl cells; for Abs. Inf.: absolute infection signal, HIV-1 on TZM-bl cells, β-galactosidase luminescence; for Log10 Inf. rel. to EF-C: log10 of HIV-1 infection of TZM-bl cells relative to EF-C (EF-C = 0); for Log10 of Rel to EFC (Feb2021): Log10 of infection relative to EF-C, all peptides of FigS16
[2] = β-sheet content by ATR-FT-IR; format: physicochemical; details: for b -sheet / %: Fig. S7 panel A, β-sheet content by ATR-FT-IR
Outline: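 Measurements on freeze-dried PNF powders used a diamond ATR element, 64 scans each, with β-sheet fraction derived as previously reported. CR reflects loss of fluorescamine-reactive monomer after 3 kDa ultrafiltration, averaged over triplicates.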

[3] = Zeta-potential measurement; format: physicochemical
Outline: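 Peptides from a 10 mg/mL DMSO stock were brought to 1 mg/mL in PBS (pH 7.4) and aged 1 d at RT. Just before reading, they were diluted into 1 mM aqueous KCl, and zeta potential was calculated from electrophoretic mobility with the Smoluchowski formula.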

[4] = Turbidity, derived count rate of scattered light; format: physicochemical; details: for Count Rate / kcps: derived count rate of scattered light at 633 nm, 173°, from zeta-potential measurement, 0.1 mg/mL in 1 mM KCl after 1 d at 1 mg/mL in PBS, turbidity / microscopic aggregation, mean of triplicate
Outline: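 Samples: 1 mg/mL in PBS pH 7.4 (from DMSO), 1 d at RT, then diluted in 1 mM KCl immediately before measurement. Triplicates, two independent runs averaged.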

[5] = Turbidity, derived count rate of scattered light; format: physicochemical; details: for Count Rate: derived count rate of scattered light (turbidity); for Log10 Count Rate: turbidity, derived count rate of scattered light, data of Figure 2D
[6] = Fig. S7 panel A (plotted against β-sheet content)
[7] = Fig. S7 panel B (plotted against CR), rounded to two decimals
[8] = Log10 of infection rate relative to EF-C, Figure 3A source data
[9] = infection rate relative to EF-C, log10, data of Figure 2D
[10] = infection rate relative to EF-C, log10, source data of Figure 2C
[11] = zeta-potential of peptide, source data of Figure 2C
[12] = zeta-potential of the peptide assemblies, mean, Figure 3A source data
[13] = Log10 of derived count rate of scattered light (turbidity)
[14] = turbidity, Log10 of derived count rate of scattered light, Figure 3A source data
[15] = turbidity, log10 of derived count rate of scattered light
[16] = zeta potential of peptide assemblies
[17] = log10 of derived count rate of scattered light (turbidity)

QCKAKAQANMWQ
Rel-EFC ([1]; 1.3 µM peptide): 0,07 | Log10 Infection Rel EFC ([1]; 1.3 µM peptide): -1,14 | Log Infectivity [1, 6]: -1.144 | Log Infectivity [1, 7]: -1.14 | Log10 Infection Rel EF-C [1, 8]: -1.14 | Log10 Infection Rel EF-C [1, 9]: -1.144 | Log10 Infection Rel EF-C [1, 10]: -1.144 | Inf. rel. EF-C ([1]; HIV-1 infection relative to EF-C, Fig 23 plot, panels A and B, mean of 3 values): 0.1207 | Inf. rel. EF-C ([1]; HIV-1 infection relative to EF-C, Fig 23 plot, single data point, replicate 1): 0.1632 | Inf. rel. EF-C ([1]; HIV-1 infection relative to EF-C, Fig 23 plot, single data point, replicate 2): 0.09951 | Inf. rel. EF-C ([1]; HIV-1 infection relative to EF-C, Fig 23 plot, single data point, replicate 3): 0.09928 | Abs. Inf. / RLU s-1 ([1]; absolute infection rate, peptide 1.3 µM on cells, virus preincubated 10 min with fibrils, read 3 days post infection, mean of triplicate): 2767 RLU s-1 | Abs. Inf. [1]: 2767 | Log10 Inf. rel. to EF-C [1]: -1.144 | Inf. rel. EF-C ([1]; n-fold infection vs virus only, relative to that of EF-C, 1.3 µM peptide): 0.07 | ß-sheet / % ([2]; ATR-FT-IR of lyophilised 1 mg/mL PNF solution, peak integral ratio 1625-1635 cm-1, measured once): 33% | b -sheet / % [2]: 32.8999% | Zeta-Pot. [3]: -8.05 | Zeta pot. / mV ([3]; 1 mg/mL in PBS pH 7.4 from 10 mg/mL DMSO stock, 1 d RT, 60 µL diluted in 600 µL 1 mM KCl, Zetasizer Nano ZS, Smoluchowski, mean of triplicate): -8.1 mV | Zeta-Potential / mV [3, 11]: -4.813 mV | Zeta-Potential / mV [3, 12]: -8.05 mV | Log10 Count Rate [4, 13]: 2.631 | Count Rate / kcps [4]: 428 kcps | Log10 Count Rate ([4]; logarithm of count rate in kcps): 2.6 | Log10 Count Rate [4, 14]: 2.631 | Log10 Count Rate [4, 15]: 2.631 | Count Rate [5]: 427.5 | Log10 Count Rate [5]: 2.631

QCKFKQFF
Rel-EFC ([1]; 1.3 µM peptide): 0,01 | Log10 Infection Rel EFC ([1]; 1.3 µM peptide): -1,91 | Log Infectivity [1, 6]: -1.907 | Log10 Infection Rel EF-C [1, 8]: -1.91 | Log10 Infection Rel EF-C [1, 9]: -1.907 | Log10 Infection Rel EF-C [1, 10]: -1.907 | Abs. Inf. [1]: 170 | Log10 Inf. rel. to EF-C [1]: -1.907 | b -sheet / % [2]: 32.34% | Zeta-Pot. [3]: 4.94 | Zeta-Potential / mV [3, 11]: 3.089 mV | Zeta-Potential / mV [3, 12]: 4.94 mV | Log10 Count Rate [4, 13]: 2.353 | Count Rate / kcps [4]: 225 kcps | Log10 Count Rate [4, 14]: 2.353 | Log10 Count Rate [4, 15]: 2.353 | Count Rate [5]: 225.4 | Log10 Count Rate [5]: 2.353

QCKFKQFFNM
Rel-EFC ([1]; 1.3 µM peptide): 0,43 | Log10 Infection Rel EFC ([1]; 1.3 µM peptide): -0,37 | Log Infectivity [1, 6]: -0.3706 | Log Infectivity [1, 7]: -0.37 | Log10 Infection Rel EF-C [1, 8]: -0.37 | Log10 Infection Rel EF-C [1, 9]: -0.3706 | Log10 Infection Rel EF-C [1, 10]: -0.3706 | Log10 of Rel to EFC (Feb2021) [1]: -0.37 | Abs. Inf. [1]: 5847 | Log10 Inf. rel. to EF-C [1]: -0.3706 | b -sheet / % [2]: 41.8396% | Zeta-Pot. [3]: 13.67 | Zeta-Potential / mV [3, 11]: 15.12 mV | Zeta-Potential / mV [3, 12]: 13.67 mV | Log10 Count Rate [4, 13]: 4.016 | Count Rate / kcps [4]: 10385 kcps | Log10 Count Rate [4, 14]: 4.016 | Log10 Count Rate [4, 15]: 4.016 | Count Rate [5]: 10384.7 | Log10 Count Rate [5]: 4.016

QCKFKQFFNMWQ
Rel-EFC ([1]; 1.3 µM peptide): 0,01 | Log10 Infection Rel EFC ([1]; 1.3 µM peptide): -2,18 | Log Infectivity [1, 6]: -0.6059 | Log Infectivity [1, 7]: -0.61 | Log10 Infection Rel EF-C [1, 8]: -0.61 | Log10 Infection Rel EF-C [1, 9]: -0.6059 | Log10 Infection Rel EF-C [1, 10]: -0.61 | Log10 of Rel to EFC (Feb2021) [1]: -0.61 | Abs. Inf. [1]: 30896.66667 | Log10 Inf. rel. to EF-C [1]: -0.6059 | b -sheet / % [2]: 41.78% | Zeta-Pot. [3]: 9.587 | Zeta-Potential / mV [3, 11]: 11.04 mV | Zeta-Potential / mV [3, 12]: 9.59 mV | Log10 Count Rate [4, 13]: 4.277 | Count Rate / kcps [4]: 18911 kcps | Log10 Count Rate [4, 14]: 4.277 | Log10 Count Rate [4, 15]: 4.277 | Count Rate [5]: 18911.36667 | Log10 Count Rate [5]: 4.277

QCKIKIQINM
Rel-EFC ([1]; 1.3 µM peptide): 0,4 | Log10 Infection Rel EFC ([1]; 1.3 µM peptide): -0,4 | Log Infectivity [1, 6]: -0.4024 | Log Infectivity [1, 7]: -0.4 | Log10 Infection Rel EF-C [1, 8]: -0.4 | Log10 Infection Rel EF-C [1, 9]: -0.4024 | Log10 Infection Rel EF-C [1, 10]: -0.4024 | Log10 of Rel to EFC (Feb2021) [1]: -0.4 | Abs. Inf. [1]: 15250 | Log10 Inf. rel. to EF-C [1]: -0.4024 | b -sheet / % [2]: 37.11% | Zeta-Pot. [3]: 11.37 | Zeta-Potential / mV [3, 11]: 11.15 mV | Zeta-Potential / mV [3, 12]: 11.37 mV | Log10 Count Rate [4, 13]: 3.979 | Count Rate / kcps [4]: 9524 kcps | Log10 Count Rate [4, 14]: 3.979 | Log10 Count Rate [4, 15]: 3.979 | Count Rate [5]: 9524 | Log10 Count Rate [5]: 3.979

RGDCKFKFQF
Rel-EFC ([1]; 1.3 µM peptide): 0,15 | Log10 Infection Rel EFC ([1]; 1.3 µM peptide): -0,82 | Log Infectivity [1, 6]: -0.8186 | Log Infectivity [1, 7]: -0.82 | Log10 Infection Rel EF-C [1, 8]: -0.82 | Log10 Infection Rel EF-C [1, 9]: -0.8186 | Log10 Infection Rel EF-C [1, 10]: -0.8186 | Log10 of Rel to EFC (Feb2021) [1]: -0.82 | b -sheet / % [2]: 46.68% | Zeta-Pot. [3, 16]: 13.87 | Zeta-Potential / mV [3, 11]: 16.37 mV | Zeta-Potential / mV [3, 12]: 13.87 mV | Log10 Count Rate [4, 13]: 3.1264 | Count Rate / kcps [4]: 1338 kcps | Log10 Count Rate [4, 17]: 3.1264 | Log10 Count Rate [4, 14]: 3.1264 | Count Rate [5]: 1338 | Log10 Count Rate [5]: 3.1264

RGDCKIKIQINM
Rel-EFC ([1]; 1.3 µM peptide): 0,24 | Log10 Infection Rel EFC ([1]; 1.3 µM peptide): -0,63 | Log Infectivity [1, 6]: -0.6272 | Log10 Infection Rel EF-C [1, 8]: -0.63 | Log10 Infection Rel EF-C [1, 9]: -0.6272 | Log10 Infection Rel EF-C [1, 10]: -0.6272 | Log10 of Rel to EFC (Feb2021) [1]: -0.63 | b -sheet / % [2]: 43% | Zeta-Pot. [3, 16]: 11.3 | Zeta-Potential / mV [3, 11]: 12.35 mV | Zeta-Potential / mV [3, 12]: 11.3 mV | Log10 Count Rate [4, 13]: 3.2102 | Count Rate / kcps [4]: 1623 kcps | Log10 Count Rate [4, 17]: 3.2102 | Log10 Count Rate [4, 14]: 3.2102 | Count Rate [5]: 1623 | Log10 Count Rate [5]: 3.2102
